Active and inactive are the calls of the source. No rule for the calls is given here.
Test system: CCRIS mutagenicity, Ames/micronucleus/aberration tests
Experiment: CCRIS mutagenicity studies
[1] = Test System: Ames Salmonella typhimurium, Strain/Indicator: TA98, Metabolic Activation: None, Method: Preincubation
[2] = Test System: Ames Salmonella typhimurium, Strain/Indicator: TA100, Metabolic Activation: None, Method: Preincubation
[3] = Test System: AMES SALMONELLA TYPHIMURIUM, Strain/Indicator: TA1535, Metabolic Activation: NONE, Method: PREINCUBATION

SMILES: Nc1ccc(O)c2c1C(=O)C=CC2=O
- mutagenic call (Test System: Ames Salmonella typhimurium, Strain/Indicator: TA97, Metabolic Activation: None, Method: Preincubation): inactive; negative
- mutagenic call (Test System: Ames Salmonella typhimurium, Strain/Indicator: TA97, Metabolic Activation: Rat, Liver, S9, Aroclor 1254, Method: Preincubation): inactive; negative
- mutagenic call [1]: active; positive
- mutagenic call (Test System: Ames Salmonella typhimurium, Strain/Indicator: TA98, Metabolic Activation: Rat, Liver, S9, Aroclor 1254, Method: Preincubation): active; positive
- mutagenic call [2]: inactive; negative
- mutagenic call (Test System: Ames Salmonella typhimurium, Strain/Indicator: TA100, Metabolic Activation: Rat, Liver, S9, Aroclor 1254, Method: Preincubation): inactive; negative
- mutagenic call (Test System: Ames Salmonella typhimurium, Strain/Indicator: TA102, Metabolic Activation: None, Method: Preincubation): inactive; negative
- mutagenic call (Test System: Ames Salmonella typhimurium, Strain/Indicator: TA102, Metabolic Activation: Rat, Liver, S9, Aroclor 1254, Method: Preincubation): active; positive

SMILES: CN(Cc1ccccc1)N=O
- mutagenic call (Test System: AMES SALMONELLA TYPHIMURIUM, Strain/Indicator: TA100, Metabolic Activation: RAT, LIVER, S-9, AROCLOR 1254, Method: STANDARD PLATE): active; positive
- mutagenic call (Test System: AMES SALMONELLA TYPHIMURIUM, Strain/Indicator: TA100, Metabolic Activation: RAT, LIVER, S-9, ETHANOL, Method: STANDARD PLATE): active; positive
- mutagenic call (Test System: AMES SALMONELLA TYPHIMURIUM, Strain/Indicator: TA100, Metabolic Activation: RAT, LIVER, S-9, KC500 OR PHENOBARBITAL, Method: LIQUID SUSPENSION): active; positive
- mutagenic call (Test System: AMES SALMONELLA TYPHIMURIUM, Strain/Indicator: TA100, Metabolic Activation: RAT, LIVER, S-9, Method: STANDARD PLATE): active; positive
- mutagenic call (Test System: AMES SALMONELLA TYPHIMURIUM, Strain/Indicator: TA1535, Metabolic Activation: HAMSTER, LIVER, S-9, AROCLOR 1254, Method: STANDARD PLATE): active; positive
- mutagenic call [3]: inactive; negative
- mutagenic call (Test System: AMES SALMONELLA TYPHIMURIUM, Strain/Indicator: TA1535, Metabolic Activation: NONE, Method: STANDARD PLATE): inactive; negative
- mutagenic call (Test System: AMES SALMONELLA TYPHIMURIUM, Strain/Indicator: TA1535, Metabolic Activation: RAT, LIVER, HEPATOCYTES, Method: PREINCUBATION): inactive; negative
- mutagenic call (Test System: AMES SALMONELLA TYPHIMURIUM, Strain/Indicator: TA1535, Metabolic Activation: RAT, LIVER, S-9, AROCLOR 1254, Method: STANDARD PLATE): active; positive
- mutagenic call (Test System: AMES SALMONELLA TYPHIMURIUM, Strain/Indicator: TA1535, Metabolic Activation: RAT, LIVER, S-9, AROCLOR, Method: PREINCUBATION): active; positive
- mutagenic call (Test System: AMES SALMONELLA TYPHIMURIUM, Strain/Indicator: TA1535, Metabolic Activation: RAT, LIVER, S-9, ETHANOL, Method: STANDARD PLATE): inactive; negative
- mutagenic call (Test System: AMES SALMONELLA TYPHIMURIUM, Strain/Indicator: TA1535, Metabolic Activation: RAT, LIVER, S-9, SODIUM PHENOBARBITONE, Method: PREINCUBATION): active; positive
- mutagenic call (Test System: AMES SALMONELLA TYPHIMURIUM, Strain/Indicator: TA1535, Metabolic Activation: RAT, LIVER, S-9, Method: PREINCUBATION): inactive; negative
- mutagenic call (Test System: AMES SALMONELLA TYPHIMURIUM, Strain/Indicator: TA1535, Metabolic Activation: RAT, LIVER, S-9, Method: STANDARD PLATE): inactive; negative

SMILES: CC(=O)/C=C/C1=C(C)CCCC1(C)C
- mutagenic call (Test System: AMES SALMONELLA TYPHIMURIUM, Strain/Indicator: TA98, Metabolic Activation: HAMSTER, LIVER, S-9, AROCLOR 1254 (10%), Method: PREINCUBATION): inactive; negative
- mutagenic call (Test System: AMES SALMONELLA TYPHIMURIUM, Strain/Indicator: TA98, Metabolic Activation: NONE, Method: PREINCUBATION): inactive; negative
- mutagenic call (Test System: AMES SALMONELLA TYPHIMURIUM, Strain/Indicator: TA98, Metabolic Activation: RAT, LIVER, S-9, AROCLOR 1254 (10%), Method: PREINCUBATION): inactive; negative
- mutagenic call (Test System: AMES SALMONELLA TYPHIMURIUM, Strain/Indicator: TA100, Metabolic Activation: HAMSTER, LIVER, S-9, AROCLOR 1254 (10%), Method: PREINCUBATION): inactive; negative
- mutagenic call (Test System: AMES SALMONELLA TYPHIMURIUM, Strain/Indicator: TA100, Metabolic Activation: NONE, Method: PREINCUBATION): inactive; negative
- mutagenic call (Test System: AMES SALMONELLA TYPHIMURIUM, Strain/Indicator: TA100, Metabolic Activation: RAT, LIVER, S-9, AROCLOR 1254 (10%), Method: PREINCUBATION): inactive; negative
- mutagenic call (Test System: AMES SALMONELLA TYPHIMURIUM, Strain/Indicator: TA1535, Metabolic Activation: HAMSTER, LIVER, S-9, AROCLOR 1254 (10%), Method: PREINCUBATION): inactive; negative
- mutagenic call [3]: inactive; negative
- mutagenic call (Test System: AMES SALMONELLA TYPHIMURIUM, Strain/Indicator: TA1535, Metabolic Activation: RAT, LIVER, S-9, AROCLOR 1254 (10%), Method: PREINCUBATION): inactive; negative
- mutagenic call (Test System: AMES SALMONELLA TYPHIMURIUM, Strain/Indicator: TA1537, Metabolic Activation: HAMSTER, LIVER, S-9, AROCLOR 1254 (10%), Method: PREINCUBATION): inactive; negative
- mutagenic call (Test System: AMES SALMONELLA TYPHIMURIUM, Strain/Indicator: TA1537, Metabolic Activation: NONE, Method: PREINCUBATION): inactive; negative
- mutagenic call (Test System: AMES SALMONELLA TYPHIMURIUM, Strain/Indicator: TA1537, Metabolic Activation: RAT, LIVER, S-9, AROCLOR 1254 (10%), Method: PREINCUBATION): inactive; negative
- mutagenic call (Test System: Ames Salmonella typhimurium, Strain/Indicator: TA97a, Metabolic Activation: None, Method: Preincubation): inactive; negative
- mutagenic call (Test System: Ames Salmonella typhimurium, Strain/Indicator: TA97a, Metabolic Activation: None, Method: Standard plate): inactive; negative
- mutagenic call (Test System: Ames Salmonella typhimurium, Strain/Indicator: TA97a, Metabolic Activation: Rat, Liver, S-9, Aroclor 1254, Method: Preincubation): inactive; negative
- mutagenic call (Test System: Ames Salmonella typhimurium, Strain/Indicator: TA97a, Metabolic Activation: Rat, Liver, S-9, Aroclor 1254, Method: Standard plate): inactive; negative
- mutagenic call [1]: inactive; negative
- mutagenic call (Test System: Ames Salmonella typhimurium, Strain/Indicator: TA98, Metabolic Activation: None, Method: Standard plate): inactive; negative
- mutagenic call (Test System: Ames Salmonella typhimurium, Strain/Indicator: TA98, Metabolic Activation: Rat, Liver, S-9, Aroclor 1254, Method: Preincubation): inactive; negative
- mutagenic call (Test System: Ames Salmonella typhimurium, Strain/Indicator: TA98, Metabolic Activation: Rat, Liver, S-9, Aroclor 1254, Method: Standard plate): inactive; negative
- mutagenic call [2]: inactive; negative
- mutagenic call (Test System: Ames Salmonella typhimurium, Strain/Indicator: TA100, Metabolic Activation: None, Method: Standard plate): inactive; negative
- mutagenic call (Test System: Ames Salmonella typhimurium, Strain/Indicator: TA100, Metabolic Activation: Rat, Liver, S-9, Aroclor 1254, Method: Preincubation): inactive; negative
- mutagenic call (Test System: Ames Salmonella typhimurium, Strain/Indicator: TA100, Metabolic Activation: Rat, Liver, S-9, Aroclor 1254, Method: Standard plate): inactive; negative
- mutagenic call (Test System: Ames Salmonella typhimurium, Strain/Indicator: TA1535, Metabolic Activation: None, Method: Preincubation): inactive; negative
- mutagenic call (Test System: Ames Salmonella typhimurium, Strain/Indicator: TA1535, Metabolic Activation: None, Method: Standard plate): inactive; negative
- mutagenic call (Test System: Ames Salmonella typhimurium, Strain/Indicator: TA1535, Metabolic Activation: Rat, Liver, S-9, Aroclor 1254, Method: Preincubation): inactive; negative
- mutagenic call (Test System: Ames Salmonella typhimurium, Strain/Indicator: TA1535, Metabolic Activation: Rat, Liver, S-9, Aroclor 1254, Method: Standard plate): inactive; negative

Source: PubChem BioAssay AID1259407 (Chemical Carcinogenesis Research Information System (CCRIS), 2018)
